Reference: patent US7267983B2 (priority 2000, dated 2007)
Several values for one entry are separate records, joined by “and”; a condition that tells them apart may be missing. Identical values can stand only once.

These substances were tested on β-toxin production by Clostridium perfringens.
Assay type: cell-based
Parameters: mean total toxin production: unit not given here

Substance | toxin per cell | total toxin ratio (total toxin with test peptide divided by base media total toxin) | mean total toxin production | amount of toxin produced per cell | total toxin in the two-point ELISA over optimized base medium alone | total toxin produced by the culture | beta toxin accumulation in the culture supernatant | toxin production | total toxin mean value
ALFHE: pentapeptide | increased toxin per cell above the mean | – | – | – | – | – | – | – | –
DKAL: tetrapeptide | – | increased the total toxin ratio | – | – | – | – | – | – | –
DKTNG: pentapeptide | increased toxin per cell above the mean | – | – | – | – | – | – | – | –
DMLQT: pentapeptide | increased toxin per cell above the mean | – | – | – | – | – | – | – | –
DTHHI: pentapeptide | increased toxin per cell above the mean | – | – | – | – | – | – | – | –
EKALE: pentapeptide | increased toxin per cell above the mean | – | – | – | – | – | – | – | –
ELSPH: pentapeptide | increased toxin per cell above the mean | – | – | – | – | – | – | – | –
ESLQM: pentapeptide | increased toxin per cell above the mean | – | – | – | – | – | – | – | –
ETLNL: pentapeptide | – | – | 8.28 | – | – | – | – | – | –
ETVNF: pentapeptide | increased toxin per cell above the mean | – | – | – | – | – | – | – | –
FDIST: pentapeptide | – | – | 8.395 | – | – | – | – | – | –
FEFGV: pentapeptide | increased toxin per cell above the mean | – | – | – | – | – | – | – | –
FEFVG: pentapeptide | – | – | 8.79 and 8.787 | doubled | about 2.2 × | near doubling | – | – | –
FMSTA: pentapeptide | increased toxin per cell above the mean | – | – | – | – | – | – | – | –
FSFVE: pentapeptide | – | – | 8.727 | – | – | – | – | – | –
FSLLE: pentapeptide | – | – | 8.855 | – | – | – | – | – | –
FVPEK: pentapeptide | increased toxin per cell above the mean | – | – | – | – | – | – | – | –
GDYVS: pentapeptide | increased toxin per cell above the mean | – | – | – | – | – | – | – | –
GGMPG: pentapeptide | increased toxin per cell above the mean | – | – | – | – | – | – | – | –
GYPEV: pentapeptide | increased toxin per cell above the mean | – | – | – | – | – | – | – | –
HAPAY: pentapeptide | increased toxin per cell above the mean | – | – | – | – | – | – | – | –
HTVEL: pentapeptide | increased toxin per cell above the mean | – | – | – | – | – | enhance beta toxin accumulation | – | –
IKLAS: pentapeptide | – | – | 7.7475 | – | – | – | – | – | –
KFIEK: pentapeptide | increased toxin per cell above the mean | – | – | – | – | – | – | – | –
KFIFE: pentapeptide | increased toxin per cell above the mean | – | – | – | – | – | – | – | –
KPLDV: pentapeptide | increased toxin per cell above the mean | – | – | – | – | – | – | – | –
KTVGI: pentapeptide | increased toxin per cell above the mean | – | – | – | – | – | – | – | –
LADTF: pentapeptide | increased toxin per cell above the mean | – | – | – | – | – | – | – | –

Substance | toxin per cell | total toxin ratio (total toxin with test peptide divided by base media total toxin) | mean total toxin production | amount of toxin produced per cell | total toxin in the two-point ELISA over optimized base medium alone | total toxin produced by the culture | beta toxin accumulation in the culture supernatant | toxin production | total toxin mean value
LPDLF: pentapeptide | increased toxin per cell above the mean | – | – | – | – | – | – | – | –
LSAL: tetrapeptide | – | – | – | – | – | – | – | significantly inhibited toxin production | –
LSFIE: pentapeptide | increased toxin per cell above the mean | – | – | – | – | – | – | – | –
MHAPP: pentapeptide | increased toxin per cell above the mean | – | – | – | – | – | – | – | –
MMELE: pentapeptide | increased toxin per cell above the mean | – | – | – | – | – | – | – | –
MPNNF: pentapeptide | increased toxin per cell above the mean | – | – | – | – | – | – | – | –
NEGLG: pentapeptide | increased toxin per cell above the mean | – | – | – | – | – | – | – | –
NEYLY: pentapeptide | – | – | 8.665 | – | – | – | – | – | –
NLTEL: pentapeptide | – | – | 8.321 | – | – | – | – | – | –
NNNNN: pentapeptide | – | – | – | – | – | – | – | toxin production above the mean obtained in 0.5% hydrolysate media | –
NQLEV: pentapeptide | – | – | 7.81 | – | – | – | – | – | –
PELME: pentapeptide | increased toxin per cell above the mean | – | – | – | – | – | – | – | –
PLFEQ: pentapeptide | increased toxin per cell above the mean | – | – | – | – | – | – | – | –
QNDVY: pentapeptide | increased toxin per cell above the mean | – | – | – | – | – | enhance beta toxin accumulation | – | –
SNGIY: pentapeptide | increased toxin per cell above the mean | – | – | – | – | – | – | – | –
SQLEL: pentapeptide | – | – | 8.284 | – | – | – | – | – | –
SVMEM: pentapeptide | increased toxin per cell above the mean | – | – | – | – | – | – | – | –
SYIME: pentapeptide | increased toxin per cell above the mean | – | – | – | – | – | – | – | –
TKPFF: pentapeptide | increased toxin per cell above the mean | – | – | – | – | – | – | – | –
VDLLG: pentapeptide | increased toxin per cell above the mean | – | – | – | – | – | – | – | –
VEFTN: pentapeptide | increased toxin per cell above the mean | – | – | – | – | – | – | – | –
VHVYQ: pentapeptide | – | – | – | – | – | – | – | toxin production above the mean obtained in 0.5% hydrolysate media | –
VNVQA: pentapeptide | increased toxin per cell above the mean | – | – | – | – | – | – | – | –
YENLY: pentapeptide | increased toxin per cell above the mean | – | – | – | – | – | – | – | –
YEQQN: pentapeptide | increased toxin per cell above the mean | – | – | – | – | – | – | – | –
YEYIG: pentapeptide | – | – | – | – | – | – | – | – | greater than twice that obtained using 3.5% hydrolysate alone
YEYIY: pentapeptide | increased toxin per cell above the mean | – | – | – | – | – | – | – | –
